From patent US20210299198A1, “DIABETES-ALLEVIATING OR ANTIOXIDANT COMPOSITION COMPRISING YEAST EXTRACT AND METHOD FOR PREPARING YEAST EXTRACT” (COENBIO CO., LTD., priority 2018, published 2021)
Read-outs that look alike come from different tables or passages of the source.

What was measured:
[1] = Radical cation de-colorization assay using ABTS; assay type: biochemical
Experimental: 7 mM ABTS was mixed with 2.45 mM potassium persulfate and incubated at room temperature for 16 h to create ABTS cations (ABTS^+). […] The results are shown in Tables 5 and 6 (see FIGS. 4 and 8).

[2] = assay type: biochemical
Experimental: First, 50 μL of potassium ferricyanide and 20 μL of each sample were added to 50 μL of a 0.2 M phosphate buffer solution (pH 6.6) and the mixture was allowed to react at 50° C. for 20 min. After completion of the reaction, 50 μL of a 10% TCA solution was added, followed by centrifugation at 3000×g for 20 min. 100 μL of the supernatant, 200 μL of triple-distilled water, and 20 μL of 0.1% ferric chloride were added, and the absorbance was measured at 700 nm. Trolox and BHA were used as positive controls.

[3] = Free radical scavenging assay using DPPH; assay type: biochemical
Experimental: An antioxidant scavenges DPPH radicals, losing its original color and being made transparent. The test sample was mixed with 2,2-diphenyl-1-picrylhydrazyl (DPPH, 100 μM) in a ratio of 1:20 and the mixture was stored at 37° C. for 30 min. After completion of the reaction, the absorbance was measured at 517 nm using a spectrophotometer. A lower absorbance indicates a higher antioxidant activity. […] The results are shown in Tables 3 and 4 (see FIGS. 3 and 7).

Question: Which “ABTS scavenging activities (IC50) AVERAGE” value ([1]; yeast extracts 1) does the source give for `O=C1O[C@H]([C@@H](O)CO)C(O)=C1O` [Ascorbic acid, ascorbic acid] here?
Answer: 260 µg/mL

Question: What about the “ABTS scavenging activities (IC50) AVERAGE” value ([1]; yeast extracts 2) of the same compound?
Answer: 260 µg/mL

Question: And the “Reducing power activities (absorbance at 700 nm)” value (“Reducing power activities” below) ([2]; yeast extract 2, 15.625 μg/mL)?
Answer: 0.058 ± 0.001

Question: What about the “Reducing power activities” value ([2]; yeast extract 2, 62.5 μg/mL) of the same compound?
Answer: 0.267 ± 0.002

Question: What about the “Reducing power activities” value ([2]; yeast extract 2, 250 μg/mL) of the same compound?
Answer: 0.940 ± 0.005

Question: And the “Reducing power activities” value ([2]; yeast extract 2, 1000 μg/mL)?
Answer: 1.146 ± 0.008

Question: What about the “Reducing power activities” value ([2]; yeast extracts 1, 15.625 μg/mL) of the same compound?
Answer: 0.058 ± 0.001

Question: And the “Reducing power activities” value ([2]; yeast extracts 1, 62.5 μg/mL)?
Answer: 0.267 ± 0.002

Question: What about the “Reducing power activities” value ([2]; yeast extracts 1, 250 μg/mL) of the same compound?
Answer: 0.940 ± 0.005

Question: And the “Reducing power activities” value ([2]; yeast extracts 1, 1000 μg/mL)?
Answer: 1.146 ± 0.008

Question: And the “DPPH scavenging activities (IC50) AVERAGE” value ([3]; yeast extracts 1)?
Answer: 10 µg/mL

Question: What about the “DPPH scavenging activities (IC50) AVERAGE” value ([3]; yeast extracts 2) of the same compound?
Answer: 10 µg/mL
